Active and inactive are the calls of the source. No cut-off for these calls is given here.
Assays:
T-cell [1] = experiment: Induction of apoptosis in pMel-1 TCR transgenic C57BL/6 mouse gp100 (25 to 33)-activated CD8-positive T cells assessed as live divided cells at 100 nM after 48 hrs by CFSE dilution/flow cytometric analysis (reference value: 55.2%); type: functional
T-cell [2] = experiment: Induction of apoptosis in pMel-1 TCR transgenic C57BL/6 mouse gp100 (25 to 33)-activated CD8-positive T cells assessed as live undivided cells at 100 nM after 48 hrs by CFSE dilution/flow cytometric analysis (reference value: 23.4%); type: functional
Lymphocyte = experiment: Immunosuppressive activity in lymphocytes by MLR assay; type: functional, cell-based
T-cell [3] = experiment: Induction of apoptosis in LLO118 TCR transgenic mouse LLO (190 to 205)-activated CD4-positive T cells assessed as live undivided cells at 100 nM after 48 hrs by CFSE dilution/flow cytometric analysis (reference value: 41.6%); type: functional
T-cell [4] = experiment: Induction of apoptosis in pMel-1 TCR transgenic C57BL/6 mouse gp100 (25 to 33)-activated CD8-positive T cells assessed as dead undivided cells at 100 nM after 48 hrs by CFSE dilution/flow cytometric analysis (reference value: 6.77%); type: functional
T-cell [5] = experiment: Induction of apoptosis in LLO118 TCR transgenic mouse LLO (190 to 205)-activated CD4-positive T cells assessed as live divided cells at 100 nM after 48 hrs by CFSE dilution/flow cytometric analysis (reference value: 40.6%); type: functional
T-cell [6] = experiment: Induction of apoptosis in pMel-1 TCR transgenic C57BL/6 mouse gp100 (25 to 33)-activated CD8-positive T cells assessed as dead divided cells at 100 nM after 48 hrs by CFSE dilution/flow cytometric analysis (reference value: 14.7%); type: functional
T-cell [7] = experiment: Induction of apoptosis in LLO118 TCR transgenic mouse LLO (190 to 205)-activated CD4-positive T cells assessed as dead undivided cells at 100 nM after 48 hrs by CFSE dilution/flow cytometric analysis (reference value: 14.7%); type: functional
T-cell [8] = experiment: Induction of apoptosis in LLO118 TCR transgenic mouse LLO (190 to 205)-activated CD4-positive T cells assessed as dead divided cells at 100 nM after 48 hrs by CFSE dilution/flow cytometric analysis (reference value: 3.04%); type: functional
Mus musculus [9] = experiment: Immunosuppressive activity in C57BL/6J mouse KLH-induced delayed-type hypersensitivity model assessed as alleviation of footpad swelling at 16 nmol administered on day 7 and 8 post-sensitization measured on day 9; type: functional, organism-based
Th1 [10] = experiment: Induction of mitochondrial depolarization in LLO118 TCR transgenic mouse Th1 cells treated for 2 days by MitoTracker Orange CMTMRos staining-based flow cytometric analysis; type: functional, cell-based
[11] = Antiinflammatory activity in LLO118 TCR transgenic mouse Th1 cells assessed as inhibition of IFN-gamma production at 10 nM for 2 days by flow cytometric analysis (reference value: 90%); type: functional; design: scale not given: the % may be the effect or the level left
T-cell [12] = experiment: Antiinflammatory activity in LLO118 TCR transgenic mouse IL-2-competent CD4-positive T cells assessed as inhibition of LLO (190 to 205)-induced IL-2 production at 100 nM for 2 days by flow cytometric analysis; type: functional, cell-based
Mus musculus [13] = experiment: Immunosuppressive activity in C57BL/6J mouse KLH-induced delayed-type hypersensitivity model assessed as blockade of lymphocyte accumulation at 16 nmol administered on day 7 and 8 post-sensitization measured on day 9; type: functional, organism-based
Th17 [14] = experiment: Induction of mitochondrial depolarization in LLO118 TCR transgenic mouse Th17 cells treated for 2 days by MitoTracker Orange CMTMRos staining-based flow cytometric analysis; type: functional, cell-based
Th17 [15] = experiment: Antiinflammatory activity in LLO118 TCR transgenic mouse Th17 cells assessed as inhibition of IL-17 production at 10 to 100 nM for 2 days by flow cytometric analysis; type: functional, cell-based
BMDC [16] = experiment: Reduction in mitochondrial mass in LPS-matured B6 mouse BMDC at 100 nM for 1 day by MitoTracker Deep Red FM staining-based flow cytometric analysis; type: functional
BMDC [17] = experiment: Induction of mitochondrial depolarization in B6 mouse immature BMDC at 100 nM for 1 day by MitoTracker Orange CMTMRos staining-based flow cytometric analysis; type: functional
Th17 [18] = experiment: Reduction in mitochondrial mass in LLO118 TCR transgenic mouse Th17 cells at 50 to 100 nM for 2 days by MitoTracker Deep Red FM staining-based flow cytometric analysis; type: functional, cell-based
[19] = Antiinflammatory activity in LLO118 TCR transgenic mouse IL-2-competent CD4-positive T cells assessed as inhibition of LLO (190 to 205)-induced IL-2 production at 1 nM for 2 days by flow cytometric analysis relative to control; type: functional; conditions: T-cell, 48 h
Mus musculus [20] = experiment: Immunosuppressive activity in C57BL/6J mouse KLH-induced delayed-type hypersensitivity model assessed as amelioration of tissue injury at 16 nmol administered on day 7 and 8 post-sensitization measured on day 9; type: functional, organism-based
BMDC [21] = experiment: Induction of mitochondrial depolarization in LPS-matured B6 mouse BMDC at 100 nM for 1 day by MitoTracker Orange CMTMRos staining-based flow cytometric analysis; type: functional
[22] = Immunosuppressive activity in C57Bl/6 mouse lymphocytes assessed as inhibition of cell proliferation co-incubated with BALB/c mouse stimulator lymphocytes after 72 hrs by [3H]-thymidine incorporation assay; type: functional, cell-based; conditions: C57Bl/6, Lymphocyte
BMDC [23] = experiment: Reduction in mitochondrial mass in B6 mouse immature BMDC at 100 nM for 1 day by MitoTracker Deep Red FM staining-based flow cytometric analysis; type: functional
Th1 [24] = experiment: Reduction in mitochondrial mass in LLO118 TCR transgenic mouse Th1 cells at 50 to 100 nM for 2 days by MitoTracker Deep Red FM staining-based flow cytometric analysis; type: functional, cell-based

SMILES	Activity (T-cell [1]) [%]	Activity (T-cell [2]) [%]	IC50 (Lymphocyte) [µM]	Activity (T-cell [3]) [%]	Activity (T-cell [4]) [%]	Activity (T-cell [5]) [%]	Activity (T-cell [6]) [%]	Activity (T-cell [7]) [%]	Activity (T-cell [8]) [%]	IC50 [22] [µM]	further results
C/C=C/C[C@@H](C)[C@@H](O)[C@H]1C(=O)N[C@@H](CC)C(=O)N(C)CC(=O)N(C)[C@@H](CC(C)C)C(=O)N[C@@H](C(C)C)C(=O)N(C)[C@@H](CC(C)C)C(=O)N[C@@H](C)C(=O)N[C@H](C)C(=O)N(C)[C@@H](CC(C)C)C(=O)N(C)[C@@H](CC(C)C)C(=O)N(C)[C@@H](C(C)C)C(=O)N1C [CYCLOSPORINE]	0.68	2.01	0.089	1.94	86.5	1.02	10.8	86.1	10.9		
C=C1CC[C@H]2[C@]3(C)C[C@@H](C=C(C)C)O[C@H]3CC[C@]2(C)[C@@H]1Cc1c(O)c(C)c(C)oc1=O [SUBGLUTINOL A]	1.04	12.3	0.025	13.4	83.6	0.73	3.09	82.6	3.29	0.1	Activity (Mus musculus [9]): Active; Activity (Th1 [10]): Dose-dependent effect; Activity [11]: <1%; inhibition (T-cell [12]): Active; Activity (Mus musculus [13]): Active; Activity (Th17 [14]): Dose-dependent effect; inhibition (Th17 [15]): Active; Activity (BMDC [16]): inactive; Activity (BMDC [17]): inactive; Activity (Th17 [18]): inactive; inhibition at 0.001 µM [19]: 50%; Activity (Mus musculus [20]): Active; Activity (BMDC [21]): inactive; Activity (BMDC [23]): inactive; Activity (Th1 [24]): Active
C=C1CC[C@H]2[C@]3(C)C[C@H](C=C(C)C)O[C@H]3CC[C@]2(C)[C@@H]1Cc1c(O)c(C)c(C)oc1=O [SUBGLUTINOL B]										0.1	
